In patent publication US20240091306A1 (Dompe' Farmaceutici SPA, priority 2020, published 2024):

What was measured:
[1] = system: HUVECs; test: Angiogenic activity assay on BME-coated wells, stressed HUVECs; type: cell-based, human
Protocol: (§1) Low passage HUVECs were grown under stressed (serum starved; 0.5% FBS) conditions for 16 h in endothelial basal medium (EBM) and then harvested and resuspended in complete medium containing 10% FBS.
(§2) Cells were seeded (5×10^4 cells per well) in wells coated with growth factor-reduced Cultrex basement membrane extract (BME; Trevigen Gaithersburg, MD, USA) and left untreated (NT) or treated with 10 ng/ml of GST, p24, p17 or each p17-derived peptide F1 to F8.
Data are the means±SD of three independent experiments with similar results.
Statistical analysis was performed by one-way ANOVA and the Bonferroni post-test was used to compare data (***P<0.001).

[2] = system: aortic rings; test: Rat aortic ring assay (ex vivo); type: cell-based, Sprague-Dawley rats; conditions: 10 days
Protocol: Briefly, the dorsal aorta was excised from 6-wk-old Sprague-Dawley rats. Rings, 1-mm thick, were embedded in collagen gel and then incubated with serum-free EBM containing PBS, peptide F2 (10 ng/ml), peptide F3 (10 ng/ml), or FGF-2 (50 ng/ml) (Thermo Fisher Scientific, Rodano, Italy). The plates were incubated for 10 days and angiogenesis was quantified by counting the number of microvessels originating from aortic rings.

[3] = system: HUVECs; test: Angiogenic activity assay under normal and stressed condition; type: cell-based, human; conditions: 10 ng/ml
Protocol: Low passage HUVECs were grown under normal (10% FBS) or stressed (serum starved; 0.5% FBS) conditions for 16 h in endothelial basal medium (EBM) and then harvested and resuspended in complete medium containing 10% FBS. […]
An EPO-derived 11 amino acids-long peptide (EPO peptide—SEQ ID No. 10) and a F3-derived 16 amino acids-long peptide (F3S—SEQ ID No. 9) were synthetized and tested at 10 ng/ml for their angiogenic activity under the same procedure of Example 7.

[4] = system: full-thickness excisional skin wounds; test: In vivo wound-healing assay in diabetic mice; design: species or system spontaneously diabetic (db/db) mice; conditions: db/db mice, topical daily, 1.0 μg/50 μL days 0 to 7 and 10 μg/50 μL days 8 to 13; days 8 to 14 (p≤0.035)
Description: Patients with diabetes are prone to impaired wound healing, with foot ulceration being particularly prevalent. This delay in wound healing also extends to animal models of diabetes. The impact of the EPO peptide (DSRVLERYLLE, corresponding to SEQ ID No. 10) on wound healing was therefore investigated by in vivo experiments on spontaneously diabetic (db/db) mice (i.e., BKS.Cg-m Dock7^m+/+Lepr^db/J mice).
In this study, the healing of full-thickness excisional skin wounds on the flanks of diabetic mice in receipt of the EPO peptide was compared to that of wounds in receipt of negative control (Water for Injection) treatment. The overall wound closure (i.e. the reduction in open wound area) was determined over time by taking scaled wound images of each wound at each assessment point.
EPO Peptide (DFL24435) was solubilized at 200 μg/mL (10 μg per 50 μL) in sterile water for injection, aliquoted into 100 μL volumes, stored at −20° C., defrosted on the day of use and diluted as necessary.
The animals were divided in a control group, that was treated with water for injection, and a EPO peptide group, that was treated with the peptide. Treatment was carried out once a day on post-wounding days 0 to 13 and the animals were sacrificed on day 14. […]

[5] = system: B cell; conditions: He W et al. 2019; cited from earlier work
[6] = system: chick chorioallantoic membrane (CAM); test: Chick chorioallantoic membrane (CAM) assay; type: in vivo, White Leghorn chicken; conditions: 100 ng on gelatin sponge, day 12
Protocol: The vasculogenic activity of peptide F2 and F3 was further characterized by in vivo experiments by using the chick chorioallantoic membrane (CAM) assay.
Fertilized White Leghorn chicken eggs (30 per group) were incubated at 37° C. at constant humidity. On day 3, a square window was opened in the shell, and 2-3 ml of albumin was removed to allow detachment of the developing CAM. The window was sealed with a glass, and the eggs were returned to the incubator. On day 8, eggs were treated with 1 mm 3 sterilized gelatin sponges (Gelfoam; Upjohn, Kalamazoo, MI, USA) placed on top of the growing CAM, as described in Ribatti D et al, Nat Protoc, 2006; 1:85-91, and loaded with 1 μl of PBS (negative control), 1 μl of PBS containing 100 ng of peptide F2 or F3. CAMs were examined daily until day 12 and photographed in ovo with a stereomicroscope equipped with a camera and image analyzer system (Olympus, Hamburg, Germany). At day 12, the angiogenic response was evaluated by the image analyzer system and counted as the number of vessels converging toward the sponge.

[7] = system: HUVECs; test: Wound-healing assay (EC migration); type: cell-based, human; conditions: 10 ng/ml; for effect on HUVEC migration: 12 h; for healing: after 12 h of culture
Protocol: The involvement of peptide F2 and F3 in promoting EC migration was evaluated by performing a wound healing assay.
HUVECs were plated on 24-well plates (10^5 cells per well) in complete medium containing 10% FBS. Confluent monolayers were nutrient starved for 16 h and then scratched using a 200 μI pipette tip. After being washed, cells were left untreated or treated with 10 ng/ml of GST, p24, p17, or each p17-derived peptide F1 to F8.

[8] = system: LN-LECs; test: Angiogenic activity assay on LN-LECs; type: cell-based, human; conditions: LN-LECs (lymph node)
Protocol: Human primary lymph node-derived endothelial cells (LN-LECs) have been developed and characterized as described in Norder et al, FASEB J, 2012; 26:2835-2846.
LN-LECs were cultured in EGM (Lonza) containing 10% FBS and supplemented with VEGF-C (25 ng/ml) (Reliatech, Wolfenbuettel, Germany).
as §1, §2
(§3) Similar results were obtained by using human ECs derived from different origin, such as aorta (HAECs), lung (HMVEC-Ls) and lymph node (LN-LECs) (FIGS. 3, 4 and 5, respectively).

[9] = system: HMVEC-Ls; test: Angiogenic activity assay on HMVEC-Ls; type: cell-based, human; conditions: HMVEC-Ls (lung)
Protocol: (§4) Human aortic endothelial cells (HAECs) and Human lung microvascular endothelial cells (HMVEC-Ls) were purchased from Clonetics (San Diego, CA, USA) and cultured in EGM-2MV (Lonza) containing 10% (vol/vol) FBS.
as §1, §2, §3

[10] = system: HAECs; test: Angiogenic activity assay on HAECs; type: cell-based, human; conditions: HAECs (aorta)
Protocol: as §4, §1, §2, §3

[11] = system: endothelial cells; test: Involvement of autophagy-based pathway in angiogenic activity; type: cell-based
[12] = system: HUVECs; test: Angiogenic activity assay with CXCR1 and CXCR2 inhibition; type: cell-based, human; conditions: stressed HUVECs, peptide 10 ng/ml, preincubation 1 hour with 2.5 μg/ml mAb
Protocol: as §1
Cells were seeded (5×10^4 cells per well) in wells coated with growth factor-reduced Cultrex basement membrane extract (BME; Trevigen Gaithersburg, MD, USA) and left untreated (NT) or treated with 10 ng/ml of each p17-derived peptide F1 or F2, after preincubation for 1 hour at 37° C. with 2.5 μg/ml of a control isotype-matched mAb (Ctrl mAb), a neutralizing mAb to CXCR1 and/or a neutralizing mAb to CXCR2.

[13] = He W et al. 2019; cited from earlier work
[14] = biological target: CXCR1 (Homo sapiens, UniProt P25024); conditions: He W et al. 2019; cited from earlier work
[15] = biological target: CXCR2 (Homo sapiens, UniProt P25025); conditions: He W et al. 2019; cited from earlier work
[16] = HUVECs, as example 2, 10 ng of the peptide
[17] = normal (10% FBS) culture conditions
[18] = stressed (serum starved; 0.5% FBS) conditions
[19] = HUVECs stressed (serum starved; 0.5% FBS) 16 h, 10 ng/ml

Chain of CXCR2 (P25025 whole entry): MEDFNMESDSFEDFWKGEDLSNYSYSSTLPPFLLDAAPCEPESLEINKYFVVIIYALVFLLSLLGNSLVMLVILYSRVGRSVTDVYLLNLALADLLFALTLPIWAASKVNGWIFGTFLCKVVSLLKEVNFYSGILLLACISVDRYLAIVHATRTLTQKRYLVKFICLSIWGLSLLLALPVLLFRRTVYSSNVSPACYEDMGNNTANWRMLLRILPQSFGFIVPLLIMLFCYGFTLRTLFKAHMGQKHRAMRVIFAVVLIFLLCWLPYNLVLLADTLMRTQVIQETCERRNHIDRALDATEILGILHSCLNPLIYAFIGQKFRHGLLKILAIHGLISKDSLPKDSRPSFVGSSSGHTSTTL
Chain of CXCR1 (P25024 whole entry): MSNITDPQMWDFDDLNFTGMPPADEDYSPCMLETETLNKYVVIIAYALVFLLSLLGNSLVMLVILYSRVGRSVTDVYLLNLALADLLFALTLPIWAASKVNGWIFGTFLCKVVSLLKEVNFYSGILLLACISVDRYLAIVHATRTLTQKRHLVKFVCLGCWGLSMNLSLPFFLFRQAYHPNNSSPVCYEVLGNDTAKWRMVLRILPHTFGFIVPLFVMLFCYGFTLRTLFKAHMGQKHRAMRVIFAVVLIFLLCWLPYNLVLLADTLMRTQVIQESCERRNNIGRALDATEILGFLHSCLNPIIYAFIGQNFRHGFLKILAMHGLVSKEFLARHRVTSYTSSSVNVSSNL

Substance: ASRELERFACNPELLE [peptide gor]
- angiogenic activity [1, 16]: able to significantly promote angiogenesis

Substance: AANELDRF [SIVcpz-derived peptide]
- angiogenic activity [1, 16]: able to significantly promote angiogenesis

Substance: AANELDRFLLE [SIVcpz-derived peptide]
- angiogenic activity [1, 16]: able to significantly promote angiogenesis

Substance: ASRELERFACNPGLME [peptide cpz]
- angiogenic activity [1, 16]: able to significantly promote angiogenesis

Substance: FGF-2: FGF-2 (Thermo Fisher Scientific), positive control in aortic ring assay [reference compound]
- number of microvessels originating from aortic rings ([2]; 50 ng/ml): 84±6

Substance: DSRVLERYLLE [EPO peptide, EPO-derived 11 amino acids-long peptide]
- angiogenic activity [3, 17]: potent angiogenic activity
- angiogenic activity [3, 18]: potent angiogenic activity
- wound closure (reduction in open wound area) compared to vehicle [4]: significantly increased closure

Substance: GARASVLSGGELDRWEKIRL [Peptide F1, p17-derived peptide, aminoacids 2 to 21 of p17]
- B cell growth promoting activity [5]: endowed with cell growth promoting activity

Substance: KHIVWASRELERFAVNPGLL [Peptide F3, p17-derived 20 amino acid peptide]
- mean number of vessels converging toward the sponge [6]: 30±3
- effect on HUVEC migration [7]: comparable to that exerted by p17
- healing [7]: ~100%
- angiogenic activity [8]: potent angiogenic activity
- angiogenic activity [9]: potent angiogenic activity
- angiogenic activity [1, 19]: endowed with angiogenic activity
- angiogenic activity [3, 17]: promote angiogenesis
- angiogenic activity [3, 18]: potent angiogenic activity
- number of microvessels originating from aortic rings ([2]; 10 ng/ml): 46±8
- angiogenic activity [10]: potent angiogenic activity
- involvement of autophagy-based pathway in angiogenic activity [11]: independent from autophagy
- effect of neutralizing mAb to CXCR1 and CXCR2 on peptide-induced angiogenesis [12]: did not impair

Substance: glutathione S-transferase [GST, reference compound]
- effect on HUVEC migration [7]: did not exert any effect
- angiogenic activity [1, 19]: did not induce any pro-angiogenic activity

Substance: ASRELERFAVNPGLLE [Peptide F3S, F3-derived 16 amino acids-long peptide]
- angiogenic activity [3, 17]: potent angiogenic activity
- angiogenic activity [3, 18]: potent angiogenic activity

Substance: EKIRLRPGGKKKYKLKHIVW [Peptide F2]
- mean number of vessels converging toward the sponge [6]: 27±4
- effect on HUVEC migration [7]: comparable to that exerted by p17
- healing [7]: ~100%
- angiogenic activity [8]: potent angiogenic activity
- binding to heparin [13]: capable to bind
- binding to CXCR1 receptor [14]: capable to bind
- angiogenic activity [9]: potent angiogenic activity
- angiogenic activity [1, 19]: endowed with angiogenic activity
- angiogenic activity [3, 17]: promoting angiogenesis under stress condition only
- angiogenic activity [3, 18]: potent angiogenic activity
- number of microvessels originating from aortic rings ([2]; 10 ng/ml): 55±5
- binding to CXCR2 receptor [15]: capable to bind
- angiogenic activity [10]: potent angiogenic activity
- involvement of autophagy-based pathway in angiogenic activity [11]: involves an autophagy-based pathway
- effect of neutralizing mAb to CXCR1 and CXCR2 on peptide-induced angiogenesis [12]: inhibitory

Substance: ASRELERF (ASRELERFLLE)
- angiogenic activity [1, 16]: able to significantly promote angiogenesis

Substance: ASRELERFLLE
- angiogenic activity [1, 16]: able to significantly promote angiogenesis
